From patent publication US20120071522A1, “THERMAL STABILIZATION OF BIOCIDES IN MATRIX COMPOSITIONS PROCESSED AT ELEVATED TEMPERATURES” (priority 2004, published 2012)

Assay: Thermal stability (color change) of biocide in polyethylene and wood-plastic composite matrixes processed at elevated temperatures
Format: physicochemical

Row | Compound | color change
1 | O=C1c2ccccc2C(=O)N1SC(Cl)(Cl)Cl [Fungitrol® 11, N-(trichloromethylthio) phthalimide] | no color change
2 | CCCCNC(=O)OCC#CI [IPBC] | no color change
